Laboratory results taken from paper PMC7312911, “Affibody-Binding Ligands” (International Journal of Molecular Sciences, 2020).
Where no end group is shown, it is not given here.

Key:
[1] = tested on: 1:1 solution of AF594-labeled anti-HSA affibody and AF488-labeled anti-IgG affibody; test: Affibody binding/elution in non-competitive conditions on peptide–Toyopearl, affibody mixture; conditions: for Yield (mass of affibody eluted vs. mass of bound affibody): non-competitive (pure affibody), PBS pH 7.4, 1 h, room temperature, elution pH 3.8, fluorescence spectroscopy; for capture of IgG-binding and HSA-binding affibodies compared: non-competitive, pure affibodies 1:1
Experimental: (§1) Ten peptides selected by sequence homology, namely, ARISRQ, IGKQRI, DIRIIR, QAAKRI, SHHSQR, DIHIRR, DHHKKA, DIRIQR, KSAYHS, and IHQRGQ, were tested as ligand candidates through binding studies in non-competitive conditions (pure affibody). The peptides were synthesized directly on Toyopearl AF-Amino 650 M resin by Fmoc/tBu synthesis; polymethacrylate-based Toyopearl resin was chosen as a chromatographic support for secondary screening in place of ChemMatrix, owing to its chemical resistance to the reagents and solvents used for peptide synthesis, low non-specific protein binding, and mechanical strength. The peptide–Toyopearl adsorbents were individually incubated with a 1:1 solution of AF594-labeled anti-HSA affibody and AF488-labeled anti-IgG affibody at the concentration of 1 mg/mL for 1 h at room temperature under gentle rotation. After washing with PBS, affibody elution (EL) was performed under acidic conditions (pH 3.8), followed by resin regeneration (R) using a harsh denaturing buffer (0.45% w/v 3-[(3-cholamidopropyl)dimethylammonio]-1-propanesulfonate (CHAPS) in 0.1 M glycine, pH 2.5). The amounts of affibodies in the unbound (UB), elution (EL), and regeneration (R) fractions, measured by fluorescence spectroscopy, were utilized to calculate the values of flow-through (FT) ratio (mass of affibody in the FT fraction vs. mass of fed antibody) and yield (mass of affibody eluted vs. mass of bound affibody), listed in Table 2.
(§2) The identified sequences were synthesized on Toyopearl AF-Amino 650 M resin by Fmoc/tBu synthesis to be tested for affibody binding in non-competitive mode. Aliquots of 50 μL of each peptide–Toyopearl adsorbent were transferred in a PCR tube, swollen in 20% methanol overnight, and copiously washed in 20% methanol to remove any residual chemical from peptide synthesis, before equilibrating in Milli-Q water followed by PBS, pH 7.4. Next, 100 μL of 50:50 solution of fluorescently labeled anti-HSA and anti-IgG affibodies (Section 2.3) at a total 1 mg/mL affibody concentration were incubated with every aliquot of peptide–Toyopearl resin for 1 h at room temperature under gentle rotation. Following incubation, the resins were pelleted by centrifugation, and the supernatant was collected and marked as “unbound” (UB) fraction. The resins were then washed with PBS and the supernatant were combined with the UB fractions. Protein elution (EL) was then performed by incubating the resins with 0.2 M acetate buffer at pH 3.8 (0.2 M acetic acid and 0.2 M sodium acetate at a 7:3 ratio) for 30 min at room temperature, and then by washing with the same elution buffer. Regeneration (R) was then performed by incubating the adsorbents with 100 mM glycine buffer at pH 2.5 added with 0.45% w/v CHAPS, at 4 °C for overnight. The collected elution fractions (EL and R) were finally equilibrated to neutral pH using PBS, pH 7.4. Finally, both UB and E fractions were diluted in PBS and analyzed by fluorescence spectroscopy.

anti-IgG affibody [2] = test: Affibody binding/elution in non-competitive conditions on peptide–Toyopearl, anti-IgG affibody; conditions: 100 μL of 50:50 labeled anti-HSA and anti-IgG affibodies, total 1 mg/mL, in PBS pH 7.4; 50 μL resin; 1 h, room temperature; elution 0.2 M acetate pH 3.8; fluorescence spectroscopy
Experimental: as §1, §2

anti-HSA affibody [3] = test: Affibody binding/elution in non-competitive conditions on peptide–Toyopearl, anti-HSA affibody; conditions: 100 μL of 50:50 labeled anti-HSA and anti-IgG affibodies, total 1 mg/mL, in PBS pH 7.4; 50 μL resin; 1 h, room temperature; elution 0.2 M acetate pH 3.8; fluorescence spectroscopy
Experimental: as §1, §2

anti-HSA affibody [4] = test: Affibody purification in competitive conditions (clarified E. coli cell lysate), anti-HSA affibody; format: binding; conditions: elution pH 3.8; for Recovery, anti-HSA affibody: 0.4 mg/mL affibody and 2 mg/mL E. coli HCPs, 200 μL feed, room temperature, eluted vs. loaded amount, fluorescence spectroscopy; for Purity, anti-HSA affibody: competitive, clarified E. coli cell lysate, densitometric analysis of EL lanes, SDS-PAGE
Experimental: (§3) The adsorbents IGKQRI–GSG–Toyopearl, IHQRGQ–GSG–Toyopearl, KSAYHS–GSG–Toyopearl, and DIRIIR–GSG–Toyopearl resins were utilized to evaluate the ability of the selected sequences to purify affibody molecules from complex sources. To this end, a feed sample was prepared by spiking fluorescently labeled anti-HSA and anti-IgG affibodies at a 1:1 molar ratio into clarified E. coli cell lysate, to obtain a final concentration of 0.4 mg/mL of affibody and 2 mg/mL of bacterial HCPs. The peptide–Toyopearl adsorbents were incubated with 200 μL of feed sample for 30 min at room temperature under gentle rotation. The unbound (UB) and elution (EL) fractions were analyzed by fluorescence spectroscopy and SDS-PAGE (Figure 1) to determine the values of recovery and purity for both affibody products (Table 3). It is noted that the mass of the affibody product measured electrophoretically appears to be double than the theoretical 6.5 kDa; this is likely due to dimerization of the affibodies by formation of a disulfide bond through their C-terminal cysteine residues.
(§4) Three sequences selected in Section 2.6 were then evaluated for affibody binding in competitive mode. Aliquots of 100 μL of the peptide–Toyopearl adsorbents were swollen and equilibrated as described in Section 2.6. The feed sample was prepared by combining 100 μL of equimolar solution of fluorescently labeled anti-HSA and anti-IgG affibodies at a total 2 mg/mL affibody concentration with 400 μL of clarified E. coli cell lysate at the adjusted concentration of host cell proteins (HCPs) of 2.5 mg/mL, to obtain a final concentration of 0.4 mg/mL of affibody and 2 mg/mL of HCPs. Next, 200 μL of feed samples were incubated with each aliquot of wet peptide–Toyopearl resin for 2 h at room temperature under gentle rotation. After incubation, unbound (UB) and elution (EL) fractions were obtained as described in Section 5.2.5; they were then analyzed by fluorescence spectroscopy to determine the yield of both affibodies and finally by SDS-PAGE to determine the total purity of the eluted affibody products.
(§5) The collected fractions were desalted into phosphate buffer at pH 7.4 using Amicon Ultra 0.5-mL centrifugal filters (3 kDa MWCO). Based on the total protein concentration determined by Bradford assay, the collected fractions were adjusted at a total protein concentration of 0.1 mg/mL, diluted 1:1 with 2× Laemmli sample buffer containing 5% β-mercaptoethanol, and incubated at 100 °C for 5 min. Next, 20 µL of each sample was loaded onto each well of a 12% Mini PROTEAN® TGX precast electrophoresis gel. Then, 10 µL of Precision Plus Protein TM Dual Color Standards diluted 100× in Laemmli sample buffer was loaded in the first and last wells. Gels were electrophoresed at 100 V constant for 95 min using a Mini PROTEAN Tetra Cell (Bio-Rad, Hercules, CA, USA) linked to a PowerPac 300 power supply (Bio-Rad). Gels were fixed in 10% acetic acid, 40% ethanol in MilliQ water for 1 h. Fixed gels were washed with MilliQ water and Coomassie stained. Imaging and densitometric analysis were performed with a GelDoc XR+ (Bio-Rad) and Image Lab software (Bio-Rad) with band intensities scaled to the intensity of an affibody standard.

anti-IgG affibody [5] = test: Affibody purification in competitive conditions (clarified E. coli cell lysate), anti-IgG affibody; format: binding; conditions: elution pH 3.8; for Recovery, anti-IgG affibody: 0.4 mg/mL affibody and 2 mg/mL E. coli HCPs, 200 μL feed, room temperature, eluted vs. loaded amount, fluorescence spectroscopy; for Purity, anti-IgG affibody: competitive, clarified E. coli cell lysate, densitometric analysis of EL lanes, SDS-PAGE
Experimental: as §3, §4, §5

[6] = tested on: anti-IgG, anti-HSA, and anti-ErbB2 affibodies; test: Langmuir adsorption isotherms, all three affibodies; format: binding
Experimental: The adsorption isotherms of anti-IgG, anti-HSA, and anti-ErbB2 affibodies on IGKQRI–GSG–Toyopearl resin were performed as described in prior work [37, 51]. Toyopearl resins functionalized with human IgG and serum albumin were utilized as corresponding positive controls, while Toyopearl® HW-40F was utilized as a negative control. Briefly, the adsorbents were incubated with solutions of target affibody at concentrations ranging between 0.01 and 2 mg/mL until binding equilibrium was reached (2.5 h). The values of bound affibody per volume of resin (q) and the corresponding equilibrium concentration of unbound affibody (C*) were fit to a Langmuir isotherm model to determine the value of maximum binding capacity (Qmax) and dissociation constant (KD,Langmuir).
Eight 50-µL aliquots of IGKQRI–GSG–Toyopearl resin were initially equilibrated in PBS at pH 7.4. Eight 0.2-mL solutions of anti-hIgG, anti-hHSA, and anti-ErbB2 affibodies in PBS at concentrations ranging from 0.01 to 2 mg/mL were prepared and incubated with the aliquots of IGKQRI–GSG–Toyopearl resin for 2.5 h at room temperature under mild shaking. […] The supernatant and washing solutions were combined and analyzed by fluorescence spectroscopy to determine the equilibrium concentration of affibody solution. The mass of affibody bound by the resin was determined by mass balance. […]

Row | Substance | Yield (mass of affibody eluted vs. mass of bound affibody) [1] [%] | mFT/mE (Anti-IgG), flow-through elution mass ratio (anti-IgG affibody [2]) | mFT/mE (Anti-HSA), flow-through elution mass ratio (anti-HSA affibody [3]) | capture of IgG-binding and HSA-binding affibodies compared [1] | Recovery, anti-HSA affibody (anti-HSA affibody [4]) | Purity, anti-HSA affibody (anti-HSA affibody [4]) [%] | Recovery, anti-IgG affibody (anti-IgG affibody [5]) | Purity, anti-IgG affibody (anti-IgG affibody [5]) [%] | binding of all target affibodies compared ([6]; Langmuir isotherms) | binding capacity (Qmax), summary ([6]; static binding, pure affibodies, summary over three affibodies)
1 | DHHKKA | 38.5 | 1.256 | 2.039 | – | – | – | – | – | – | –
2 | ARISRQ | 51.7 | 0.885 | 1.709 | – | – | – | – | – | – | –
3 | IGKQRI [IGKQRI] | – | 0.448 | 0.628 | equal capture of IgG-binding and HSA-binding affibodies | 95.2% ± 4.6% | 94.1 | 97.2% ± 1.5% | 95.8 | comparable affinity and binding capacity | ~ 5 mg affibody per mL of resin
4 | SHHSQR | 44.3 | 1.238 | 1.387 | – | – | – | – | – | – | –
5 | IHQRGQ | – | 0.446 | 0.781 | equal capture of IgG-binding and HSA-binding affibodies | 96.1% ± 2.4% | 92.6 | 95.3% ± 4.5% | 93.1 | – | –

Second part, led by results:

Row | Yield (mass of affibody eluted vs. mass of bound affibody) [1] [%] | mFT/mE (Anti-IgG), flow-through elution mass ratio (anti-IgG affibody [2]) | mFT/mE (Anti-HSA), flow-through elution mass ratio (anti-HSA affibody [3]) | Substance | capture of IgG-binding and HSA-binding affibodies compared [1] | Recovery, anti-HSA affibody (anti-HSA affibody [4]) | Purity, anti-HSA affibody (anti-HSA affibody [4]) [%] | Recovery, anti-IgG affibody (anti-IgG affibody [5]) | Purity, anti-IgG affibody (anti-IgG affibody [5]) [%] | binding of all target affibodies compared ([6]; Langmuir isotherms) | binding capacity (Qmax), summary ([6]; static binding, pure affibodies, summary over three affibodies)
6 | 35 | 2.245 | 0.801 | QAAKRI | – | – | – | – | – | – | –
7 | 40.4 | 1.277 | 0.473 | DIHIRR | – | – | – | – | – | – | –
8 | 39.5 | 0.445 | 2.401 | DIRIQR | – | – | – | – | – | – | –
9 | – | 0.405 | 0.796 | KSAYHS | equal capture of IgG-binding and HSA-binding affibodies | 89.5% ± 0.7% | 96.3 | 88.6% ± 3.4% | 96.4 | – | –
10 | – | 0.707 | 1.553 | DIRIIR | – | 74.9% ± 3.6% | 96.2 | 78.3% ± 2.5% | 96.5 | – | –
